Values after ≈ are worked out from the molar mass of the structure shown.
Assays:
Klebsiella aerogenes [1] = assay: Antimicrobial activity against multidrug resistant Enterobacter aerogenes ATCC 15038 harboring pDrive plasmid by broth dilution method; format: functional
Klebsiella aerogenes [2] = assay: Antimicrobial activity against multidrug resistant Enterobacter aerogenes isolate 23 by broth dilution method; format: functional
Klebsiella aerogenes [3] = assay: Antimicrobial activity against multidrug resistant Enterobacter aerogenes isolate 8 by broth dilution method; format: functional
Klebsiella pneumoniae [4] = assay: Antimicrobial activity against multidrug resistant Klebsiella pneumoniae isolate 14 by broth dilution method; format: functional
Klebsiella aerogenes [5] = assay: Antimicrobial activity against multidrug resistant Enterobacter aerogenes isolate 27 by broth dilution method; format: functional
Klebsiella aerogenes [6] = assay: Antimicrobial activity against multidrug resistant Enterobacter aerogenes isolate 2 by broth dilution method; format: functional
Klebsiella pneumoniae [7] = assay: Antimicrobial activity against multidrug resistant Klebsiella pneumoniae isolate 2 by broth dilution method; format: functional
Klebsiella aerogenes [8] = assay: Antimicrobial activity against multidrug resistant Enterobacter aerogenes isolate 6 by broth dilution method; format: functional
Klebsiella pneumoniae [9] = assay: Antimicrobial activity against multidrug resistant Klebsiella pneumoniae isolate 4 by broth dilution method; format: functional
Klebsiella pneumoniae [10] = assay: Antimicrobial activity against multidrug resistant Klebsiella pneumoniae isolate 10 by broth dilution method; format: functional
Klebsiella aerogenes [11] = assay: Antimicrobial activity against multidrug resistant Enterobacter aerogenes isolate 7 by broth dilution method; format: functional
Klebsiella aerogenes [12] = assay: Antimicrobial activity against multidrug resistant Enterobacter aerogenes isolate 4 by broth dilution method; format: functional
Klebsiella aerogenes [13] = assay: Antimicrobial activity against multidrug resistant Enterobacter aerogenes isolate 24 by broth dilution method; format: functional
Escherichia coli [14] = assay: microbe, parasite or virus in culture; settings: DH5[alpha]
Description: Antimicrobial activity against multidrug resistant Escherichia coli DH5[alpha] harboring pACM204 plasmid by broth dilution method

Klebsiella aerogenes [15] = assay: Antimicrobial activity against multidrug resistant Enterobacter aerogenes isolate 26 by broth dilution method; format: functional
Escherichia coli [16] = assay: microbe, parasite or virus in culture; settings: ATCC 35218
Description: Antimicrobial activity against multidrug resistant Escherichia coli ATCC 35218 harboring pDrive plasmid expressing ampC gene by broth dilution method

Klebsiella pneumoniae [17] = assay: Antimicrobial activity against multidrug resistant Klebsiella pneumoniae isolate 15 by broth dilution method; format: functional
Escherichia coli [18] = assay: microbe, parasite or virus in culture; settings: DH5[alpha]; remark: listed apart in the source
Description: Antimicrobial activity against multidrug resistant Escherichia coli DH5[alpha] harboring pDrive plasmid by broth dilution method

Klebsiella aerogenes [19] = assay: Antimicrobial activity against multidrug resistant Enterobacter aerogenes isolate 11 by broth dilution method; format: functional
Klebsiella pneumoniae [20] = assay: Antimicrobial activity against multidrug resistant Klebsiella pneumoniae isolate 12 by broth dilution method; format: functional
Klebsiella aerogenes [21] = assay: Antimicrobial activity against multidrug resistant Enterobacter aerogenes isolate 13 by broth dilution method; format: functional
Klebsiella aerogenes [22] = assay: Antimicrobial activity against multidrug resistant Enterobacter aerogenes isolate 15 by broth dilution method; format: functional
Klebsiella pneumoniae [23] = assay: Antimicrobial activity against multidrug resistant Klebsiella pneumoniae isolate 13 by broth dilution method; format: functional
Klebsiella aerogenes [24] = assay: Antimicrobial activity against multidrug resistant Enterobacter aerogenes isolate 17 by broth dilution method; format: functional
Klebsiella pneumoniae [25] = assay: Antimicrobial activity against multidrug resistant Klebsiella pneumoniae isolate 9 by broth dilution method; format: functional
Klebsiella aerogenes [26] = assay: Antimicrobial activity against multidrug resistant Enterobacter aerogenes isolate 19 by broth dilution method; format: functional
Klebsiella aerogenes [27] = assay: Antimicrobial activity against multidrug resistant Enterobacter aerogenes isolate 5 by broth dilution method; format: functional
Klebsiella pneumoniae [28] = assay: Antimicrobial activity against multidrug resistant Klebsiella pneumoniae isolate 7 by broth dilution method; format: functional
Klebsiella aerogenes [29] = assay: Antimicrobial activity against multidrug resistant Enterobacter aerogenes ATCC 15038 by broth dilution method; format: functional
Klebsiella pneumoniae [30] = assay: Antimicrobial activity against multidrug resistant Klebsiella pneumoniae isolate 1 by broth dilution method; format: functional
Klebsiella aerogenes [31] = assay: Antimicrobial activity against multidrug resistant Enterobacter aerogenes ATCC 15038 harboring pDrive plasmid expressing ampC gene by broth dilution method; format: functional
Klebsiella aerogenes [32] = assay: Antimicrobial activity against multidrug resistant Enterobacter aerogenes isolate 25 by broth dilution method; format: functional
Klebsiella pneumoniae [33] = assay: Antimicrobial activity against multidrug resistant Klebsiella pneumoniae isolate 11 by broth dilution method; format: functional
Klebsiella pneumoniae [34] = assay: Antimicrobial activity against multidrug resistant Klebsiella pneumoniae isolate 3 by broth dilution method; format: functional
Klebsiella pneumoniae [35] = assay: Antimicrobial activity against multidrug resistant Klebsiella pneumoniae ATCC 11296 by broth dilution method; format: functional
Klebsiella aerogenes [36] = assay: Antimicrobial activity against multidrug resistant Enterobacter aerogenes isolate 21 by broth dilution method; format: functional
Escherichia coli [37] = assay: microbe, parasite or virus in culture; settings: ATCC 35218; remark: listed apart in the source
Description: Antimicrobial activity against multidrug resistant Escherichia coli ATCC 35218 harboring pDrive plasmid by broth dilution method

Klebsiella aerogenes [38] = assay: Antimicrobial activity against multidrug resistant Enterobacter aerogenes isolate 9 by broth dilution method; format: functional
Klebsiella aerogenes [39] = assay: Antimicrobial activity against multidrug resistant Enterobacter aerogenes isolate 12 by broth dilution method; format: functional
Escherichia coli [40] = assay: microbe, parasite or virus in culture; settings: DH5[alpha]; remark: listed apart in the source
Description: Antimicrobial activity against multidrug resistant Escherichia coli DH5[alpha] harboring pDrive plasmid expressing ampC gene by broth dilution method

Klebsiella aerogenes [41] = assay: Antimicrobial activity against multidrug resistant Enterobacter aerogenes isolate 3 by broth dilution method; format: functional
Escherichia coli [42] = assay: Antimicrobial activity against multidrug resistant Escherichia coli ATCC 35218 by broth dilution method; format: functional
Klebsiella aerogenes [43] = assay: Antimicrobial activity against multidrug resistant Enterobacter aerogenes isolate 1 by broth dilution method; format: functional
Klebsiella pneumoniae [44] = assay: Antimicrobial activity against multidrug resistant Klebsiella pneumoniae isolate 8 by broth dilution method; format: functional
Klebsiella aerogenes [45] = assay: Antimicrobial activity against multidrug resistant Enterobacter aerogenes isolate 20 by broth dilution method; format: functional
Klebsiella pneumoniae [46] = assay: Antimicrobial activity against multidrug resistant Klebsiella pneumoniae isolate 16 by broth dilution method; format: functional
Klebsiella pneumoniae [47] = assay: Antimicrobial activity against multidrug resistant Klebsiella pneumoniae isolate 6 by broth dilution method; format: functional
Klebsiella aerogenes [48] = assay: Antimicrobial activity against multidrug resistant Enterobacter aerogenes isolate 18 by broth dilution method; format: functional
Klebsiella pneumoniae [49] = assay: Antimicrobial activity against multidrug resistant Klebsiella pneumoniae isolate 5 by broth dilution method; format: functional
Klebsiella aerogenes [50] = assay: Antimicrobial activity against multidrug resistant Enterobacter aerogenes isolate 14 by broth dilution method; format: functional
Klebsiella aerogenes [51] = assay: Antimicrobial activity against multidrug resistant Enterobacter aerogenes isolate 16 by broth dilution method; format: functional
Klebsiella aerogenes [52] = assay: Antimicrobial activity against multidrug resistant Enterobacter aerogenes isolate 10 by broth dilution method; format: functional
Klebsiella aerogenes [53] = assay: Antimicrobial activity against multidrug resistant Enterobacter aerogenes ATCC 15038 harboring pACM204 plasmid by broth dilution method; format: functional
Klebsiella aerogenes [54] = assay: Antimicrobial activity against multidrug resistant Enterobacter aerogenes isolate 22 by broth dilution method; format: functional
Escherichia coli [55] = assay: microbe, parasite or virus in culture; settings: DH5[alpha]; remark: listed apart in the source
Description: Antimicrobial activity against multidrug resistant Escherichia coli DH5[alpha] by broth dilution method

CC(C)(O/N=C(\C(=O)N[C@@H]1C(=O)N2C(C(=O)[O-])=C(C[n+]3ccccc3)CS[C@H]12)c1csc(N)n1)C(=O)O [CEFTAZIDIME]
MIC (Klebsiella aerogenes [1]): 0.5 µg/mL (≈ 0.000915 mM) | MIC (Klebsiella aerogenes [2]): 2050 µg/mL (≈ 3.75 mM) | MIC (Klebsiella aerogenes [3]): > 2050 µg/mL | MIC (Klebsiella pneumoniae [4]): 16 µg/mL (≈ 0.0293 mM) | MIC (Klebsiella aerogenes [5]): > 2050 µg/mL | MIC (Klebsiella aerogenes [6]): > 2050 µg/mL | MIC (Klebsiella pneumoniae [7]): 2050 µg/mL (≈ 3.75 mM) | MIC (Klebsiella aerogenes [8]): 256 µg/mL (≈ 0.468 mM) | MIC (Klebsiella pneumoniae [9]): > 2050 µg/mL | MIC (Klebsiella pneumoniae [10]): > 2050 µg/mL | MIC (Klebsiella aerogenes [11]): > 2050 µg/mL | MIC (Klebsiella aerogenes [12]): > 2050 µg/mL | MIC (Klebsiella aerogenes [13]): > 2050 µg/mL | MIC (Escherichia coli [14]): 32 µg/mL (≈ 0.0585 mM) | MIC (Klebsiella aerogenes [15]): 1020 µg/mL (≈ 1.87 mM) | MIC (Escherichia coli [16]): 16 µg/mL (≈ 0.0293 mM) | MIC (Klebsiella pneumoniae [17]): > 2050 µg/mL | MIC (Escherichia coli [18]): 2 µg/mL (≈ 0.00366 mM) | MIC (Klebsiella aerogenes [19]): > 2050 µg/mL | MIC (Klebsiella pneumoniae [20]): 16 µg/mL (≈ 0.0293 mM) | MIC (Klebsiella aerogenes [21]): > 2050 µg/mL | MIC (Klebsiella aerogenes [22]): > 2050 µg/mL | MIC (Klebsiella pneumoniae [23]): 16 µg/mL (≈ 0.0293 mM) | MIC (Klebsiella aerogenes [24]): > 2050 µg/mL | MIC (Klebsiella pneumoniae [25]): > 2050 µg/mL | MIC (Klebsiella aerogenes [26]): > 2050 µg/mL | MIC (Klebsiella aerogenes [27]): > 2050 µg/mL | MIC (Klebsiella pneumoniae [28]): > 2050 µg/mL | MIC (Klebsiella aerogenes [29]): 0.25 µg/mL (≈ 0.000457 mM) | MIC (Klebsiella pneumoniae [30]): 2050 µg/mL (≈ 3.75 mM) | MIC (Klebsiella aerogenes [31]): 64 µg/mL (≈ 0.117 mM) | MIC (Klebsiella aerogenes [32]): > 2050 µg/mL | MIC (Klebsiella pneumoniae [33]): > 2050 µg/mL | MIC (Klebsiella pneumoniae [34]): > 2050 µg/mL | MIC (Klebsiella pneumoniae [35]): 0.5 µg/mL (≈ 0.000915 mM) | MIC (Klebsiella aerogenes [36]): > 2050 µg/mL | MIC (Escherichia coli [37]): 0.5 µg/mL (≈ 0.000915 mM) | MIC (Klebsiella aerogenes [38]): > 2050 µg/mL | MIC (Klebsiella aerogenes [39]): > 2050 µg/mL | MIC (Escherichia coli [40]): 32 µg/mL (≈ 0.0585 mM) | MIC (Klebsiella aerogenes [41]): > 2050 µg/mL | MIC (Escherichia coli [42]): 0.125 µg/mL (≈ 0.000229 mM) | MIC (Klebsiella aerogenes [43]): > 2050 µg/mL | MIC (Klebsiella pneumoniae [44]): > 2050 µg/mL | MIC (Klebsiella aerogenes [45]): > 2050 µg/mL | MIC (Klebsiella pneumoniae [46]): 2050 µg/mL (≈ 3.75 mM) | MIC (Klebsiella pneumoniae [47]): 32 µg/mL (≈ 0.0585 mM) | MIC (Klebsiella aerogenes [48]): 1020 µg/mL (≈ 1.87 mM) | MIC (Klebsiella pneumoniae [49]): > 2050 µg/mL | MIC (Klebsiella aerogenes [50]): > 2050 µg/mL | MIC (Klebsiella aerogenes [51]): > 2050 µg/mL | MIC (Klebsiella aerogenes [52]): > 2050 µg/mL | MIC (Klebsiella aerogenes [53]): 64 µg/mL (≈ 0.117 mM) | MIC (Klebsiella aerogenes [54]): > 2050 µg/mL | MIC (Escherichia coli [55]): 2 µg/mL (≈ 0.00366 mM)

From ChEMBL document CHEMBL1649134, “Occurrence of efflux mechanism and cephalosporinase variant in a population of Enterobacter aerogenes and Klebsiella pneumoniae isolates producing extended-spectrum beta-lactamases” (2009)
